Test results reported in publication PMC8222713, “Variation of Two S3b Residues in KV4.1–4.3 Channels Underlies Their Different Modulations by Spider Toxin κ-LhTx-1” (Frontiers in Pharmacology, 2021).
Where a SMILES comes first, the peptide text is derived from it. Bridges are numbered along the chain shown (N, C = ends).

Assays:
KV4.1/K283D mutant = assay: Whole-cell patch clamp, KV4.1/K283D in CHO-K1 cells; format: cell-based, mouse
Procedure: (§1) The cDNA of hKV1.1, hKV1.3, rKV1.4, hKV1.5, rKV2.1, hKV3.1–3.4, mKV4.1, rKV4.2, and rKV4.3 were subcloned in the eukaryotic expression vector pCDNA3.1 or pCMV-blank. Channel mutants were made by a site-directed mutation method. Briefly, a pair of oppositely directed primers with 15 bp overlap at their 5′ ends and the designed mutation site were used to amplify the parental channel plasmid, then the PCR mix was treated with DpnI to remove the template. 10 μL digestion mix was directly used to transform 100 μL DH5α chemical competent cells. The correct mutation made by this procedure was finally confirmed by DNA sequencing. CHO-K1 cells (ATCC® CCL-61™) were grown in DMEM-F12 mixed medium (1:1) supplemented with 10% FBS and maintained in standard conditions (saturated humidity, 37°C, 5% CO2). Channel plasmid was co-transfected with pEGFP-N1 (encodes the green fluoresence protein) into CHO-K1 cells using lipofectamine 2000 following the manufacturer’s instructions. 4–6 h after transfection, cells were seeded onto poly-lysine (PLL) coated coverslips, and 24–36 h later, transfected cells were ready for patch-clamp analysis. It should be note that KV4.2 and its mutants were also co-expressed with hKChIP1 to promote their functional expressions.
(§2) Whole-cell patch clamp recording was performed in an electrophysiology platform equipped with MultiClamp 700B amplifier and Axon Digidata 1550 AD/DA convertor (Axon Instruments, Irvine, CA, United States). Data were acquired using the pClamp software (Axon Instruments, Irvine, CA, United States). All experiments were performed at room temperature. The bath solution contains (in mM): 140 NaCl, 5 KCl, 1 MgCl2, 2 CaCl2, 10 glucose, and 10 HEPES (pH = 7.3). The pipette solution contains (in mM): 140 KCl, 2.5 MgCl2, 11 EGTA, and 10 HEPES (pH = 7.3). Series resistance was kept below 10 MΩ and compensated to 80%. The concentration–response curves were fitted by a Hill logistic equation to estimate the potency (IC50) of the toxin. The whole cell conductance (G) at each depolarizing voltage (V) was determined using the equation: G = I/(V−Vrev), where I and Vrev represents the current amplitude and the reversal potential, respectively. In the present study, Vrev for K^+ current is determined to be −85.61 mV using the Nernst equation. G-V curve was obtained by plotting the normalized G as a function of V and fitted by the Boltzmann equation: y = 1/{1 + exp [(Va−V)/K]}, in which Va, V, and K represents half-maximum activation voltage, test voltage and slope factor, respectively. The steady-state fast inactivation of KV4 channels was measured using a classical two-pulses protocol: cell was held at −120 mV, and a train of conditional voltages (−120–40 mV, in 10 mV increment, 1,000 ms) were applied to induce channel inactivation, followed by a +60 mV test pulse (300 ms) to assess the proportion of non-inactivated channels; the sweep interval was set to 10 s. Currents at the test pulse (I) were normalized to the maximum value (Imax) and plotted as a function of the conditional voltage (V), the curve was fitted by the Boltzmann equation: I/Imax = A + (1−A)/{1 + exp [(V−Vh)/K]}, where Vh is the half-maximum inactivation voltage, A represents the minimum channel availability, and K is the slope factor. Gating currents of KV4.1–4.3 channels were measured as previously reported ([Tilley et al., 2019]). Briefly, the ionic pore currents were abolished by replacing K^+ with NMDG^+ in the pipette solution, and 10 µM Cs^+ was present in the bath solution to occupy the selectivity filter of KV channels to prevent decay of the gating currents during recording.
(§3) Data were presented as MEAN ± SEM, n represents the number of separate experimental cells. Data were analyzed using the software Clampfit 10.5 (Axon Instruments, Irvine, CA, United States), Graphpad Prism 5.01 (GraphPad Software, La Jolla, CA, United States) and Excel 2010 (Microsoft Corporation, Redmond, WA, United States). […]

KV3.2 channel (hKV3.2) = assay: Whole-cell patch clamp selectivity, KV3.2; format: cell-based, human; details: KV3.2, 10 µM, n = 5
Procedure: (§4) The cDNA of hKV1.1, hKV1.3, rKV1.4, hKV1.5, rKV2.1, hKV3.1–3.4, mKV4.1, rKV4.2, and rKV4.3 were subcloned in the eukaryotic expression vector pCDNA3.1 or pCMV-blank. Channel mutants were made by a site-directed mutation method. Briefly, a pair of oppositely directed primers with 15 bp overlap at their 5′ ends and the designed mutation site were used to amplify the parental channel plasmid, then the PCR mix was treated with DpnI to remove the template. 10 μL digestion mix was directly used to transform 100 μL DH5α chemical competent cells. The correct mutation made by this procedure was finally confirmed by DNA sequencing. […] 4–6 h after transfection, cells were seeded onto poly-lysine (PLL) coated coverslips, and 24–36 h later, transfected cells were ready for patch-clamp analysis. […]
(§5) Whole-cell patch clamp recording was performed in an electrophysiology platform equipped with MultiClamp 700B amplifier and Axon Digidata 1550 AD/DA convertor (Axon Instruments, Irvine, CA, United States). […] The whole cell conductance (G) at each depolarizing voltage (V) was determined using the equation: G = I/(V−Vrev), where I and Vrev represents the current amplitude and the reversal potential, respectively. In the present study, Vrev for K^+ current is determined to be −85.61 mV using the Nernst equation. […] Gating currents of KV4.1–4.3 channels were measured as previously reported ([Tilley et al., 2019]). […]

[1] = tested on: KV4.1/282TD (P282T/K283D double mutant); assay: Whole-cell patch clamp, KV4.1/282TD in CHO-K1 cells; format: cell-based, mouse
Procedure: as §1, §2, §3

KV1.3 channel (hKV1.3) = assay: Whole-cell patch clamp selectivity, KV1.3; format: cell-based, human; details: KV1.3, 10 µM, n = 5
Procedure: as §4, §5

KV3.3 channel (hKV3.3) = assay: Whole-cell patch clamp selectivity, KV3.3; format: cell-based, human; details: KV3.3, 10 µM, n = 5
Procedure: as §4, §5

[2] = tested on: KV4.3 channel gating currents; assay: Gating current recording, KV4.3; format: cell-based, rat
Procedure: as §4, §5

KV4.1/F280V mutant = assay: Whole-cell patch clamp, KV4.1/F280V in CHO-K1 cells; format: cell-based, mouse; details: +30 mV, n = 5
Procedure: as §4, §5

[3] = tested on: KV4.3/275FVPK chimeric channel; assay: Whole-cell patch clamp, KV4.3/275FVPK chimera in CHO-K1 cells; format: cell-based, rat; details: mean ± SEM
Procedure: as §1, §2, §3

[4] = tested on: KV4.2 channel gating currents; assay: Gating current recording, KV4.2; format: cell-based, rat
Procedure: as §4, §5

KV4.1/279LF/AA mutant = assay: Whole-cell patch clamp, KV4.1/279LF/AA in CHO-K1 cells; format: cell-based, mouse; details: KV4.1/279LF/AA at Va depolarizing voltage, n = 5–7
Procedure: as §4, §5

KV4.1/P282T mutant = assay: Whole-cell patch clamp, KV4.1/P282T in CHO-K1 cells; format: cell-based, mouse
Procedure: as §1, §2, §3

[5] = 10 μM κ-LhTx-1, G-V, mean ± SEM, n = 5
[6] = 10 μM κ-LhTx-1, two-pulse protocol, mean ± SEM, n = 5
[7] = Va shift by 10 μM κ-LhTx-1 vs control, mean ± SEM
[8] = Vh shift by 10 μM κ-LhTx-1 vs control, mean ± SEM
[9] = 10 μM κ-LhTx-1, two-pulse protocol, n = 5
[10] = 10 μM κ-LhTx-1, G-V, mean ± SEM, n = 6
[11] = 10 μM κ-LhTx-1, two-pulse protocol, mean ± SEM, n = 6

`CC[C@H](C)[C@@H]1NC(=O)[C@H](CCC(N)=O)NC(=O)[C@@H]2CSSC[C@@H]3NC(=O)[C@H](CC(C)C)NC(=O)[C@H](CC(N)=O)NC(=O)[C@H](CCSC)NC(=O)[C@H](Cc4c[nH]c5ccccc45)NC(=O)[C@H](CO)NC(=O)[C@H](C)NC(=O)[C@@H](NC(=O)[C@H](CCC(=O)O)NC(=O)[C@H](CCC(N)=O)NC(=O)[C@H](C)NC(=O)[C@H](CC(=O)O)NC(=O)[C@@H](N)CCC(=O)O)CSSC[C@H](NC(=O)[C@H](CSSC[C@@H](C(=O)N[C@@H](CCCCN)C(=O)N[C@@H](Cc4ccc(O)cc4)C(=O)N[C@@H](CCCCN)C(=O)N[C@@H](CC(C)C)C(N)=O)NC(=O)[C@H](Cc4c[nH]c5ccccc45)NC1=O)NC(=O)[C@H](CCCCN)NC(=O)[C@H](CCCCN)NC(=O)[C@H](CCC(=O)O)NC(=O)CNC3=O)C(=O)N[C@@H](CCC(=O)O)C(=O)NCC(=O)N[C@@H](Cc1ccc(O)cc1)C(=O)N[C@@H](C(C)C)C(=O)N2` [κ-LhTx-1] (H-EDAQECASWMNLCGEKKCCEGYVCQIWCKYKL-NH2; disulfide 6-19, 13-24, 18-28 (inferred); N-terminus and C-terminus assumed) was tested, and the “∆Va and inhi%(min) vs wild-type KV4.1” value (KV4.1/K283D mutant; 10 μM) was “unchanged ∆Va and inhi%(min)”, the “Va (steady-state activation)” value (KV4.1/K283D mutant; [5]) was 91.34 ± 3.47 mV and the “k, slope factor (steady-state activation)” value (KV4.1/K283D mutant; [5]) was 17.49 ± 1.57 mV. The “Vh (steady-state inactivation)” value (KV4.1/K283D mutant; [6]) was -36.39 ± 3.03 mV, the “k, slope factor (steady-state inactivation)” value (KV4.1/K283D mutant; [6]) was 19.23 ± 1.48 mV and the “potency vs wild-type KV4.1” value (KV4.1/K283D mutant; +30 mV, n = 5) was “only slightly reduced κ-LhTx-1 potency”. The “∆Va (steady-state activation)” value (KV4.1/K283D mutant; [7]) was 103.10 ± 4.22 mV, the “∆Vh (steady-state inactivation)” value (KV4.1/K283D mutant; [8]) was 24.74 ± 3.63 mV and the effect on currents (KV3.2 channel (hKV3.2)) was “did not remarkably affect the currents”. For the same compound, the “Va (steady-state activation)” value [1, 5] was 29.00 ± 0.52 mV, the “k, slope factor (steady-state activation)” value [1, 5] was 25.50 ± 0.51 mV and the “Vh (steady-state inactivation)” value [1, 6] was -56.22 ± 2.80 mV. For the same compound, the “k, slope factor (steady-state inactivation)” value [1, 6] was 5.95 ± 0.32 mV, the “inhi%(min)” value ([1]; 10 μM, +100 mV) was “approaching zero” and the “∆Va (steady-state activation)” value [1, 7] was 37.82 ± 2.83 mV. The “∆Vh (steady-state inactivation)” value [1, 8] was 3.38 ± 3.15 mV, the effect on currents (KV1.3 channel (hKV1.3)) was “did not remarkably affect the currents” and the effect on currents (KV3.3 channel (hKV3.3)) was “did not remarkably affect the currents”. For the same compound, the “inhibition of gating charge (Q) movement, 500 nM vs 10 µM” value ([2]; KV4.3, holding −100 mV, 20 ms to +30 mV, n = 5–6) was “inhibited essentially the same proportion of gating charge movement”, the gating current inhibition ([2]; KV4.3, n = 5–6) was “inhibited the gating currents” and the “potency vs wild-type KV4.1” value (KV4.1/F280V mutant) was “only slightly reduced κ-LhTx-1 potency”. For the same compound, the “Va (steady-state activation)” value ([3]; 10 μM κ-LhTx-1, G-V, n = 5) was 93.50 ± 2.00 mV, the “k, slope factor (steady-state activation)” value ([3]; 10 μM κ-LhTx-1, G-V, n = 5) was 17.66 ± 1.15 mV and the “Vh (steady-state inactivation)” value [3, 9] was -9.28 ± 5.57 mV. The “k, slope factor (steady-state inactivation)” value [3, 9] was 16.78 ± 3.11 mV, the “∆Va (steady-state activation)” value ([3]; Va shift by 10 μM κ-LhTx-1 vs control) was 94.81 ± 2.45 mV and the “∆Vh (steady-state inactivation)” value ([3]; Vh shift by 10 μM κ-LhTx-1 vs control) was 43.34 ± 5.46 mV. For the same compound, the “inhi%(min)” value ([3]; inhibition ratio at +100 mV, 10 μM) was 65.91 ± 3.36%, the “inhibition of gating charge (Q) movement, 500 nM vs 10 µM” value ([4]; KV4.2, holding −100 mV, 20 ms to +30 mV, n = 5–6) was “inhibited essentially the same proportion of gating charge movement” and the gating current inhibition ([4]; KV4.2, n = 5–6) was “inhibited the gating currents”. For the same compound, the “effect of mutation on toxin inhibition” value (KV4.1/279LF/AA mutant) was “profoundly weakened the effect”, the “Va (steady-state activation)” value (KV4.1/P282T mutant; [10]) was 52.55 ± 1.38 mV and the “k, slope factor (steady-state activation)” value (KV4.1/P282T mutant; [10]) was 18.09 ± 0.43 mV. The “Vh (steady-state inactivation)” value (KV4.1/P282T mutant; [11]) was -29.12 ± 1.84 mV, the “k, slope factor (steady-state inactivation)” value (KV4.1/P282T mutant; [11]) was 10.73 ± 0.41 mV and the “∆Va and inhi%(min) vs wild-type KV4.1” value (KV4.1/P282T mutant; 10 μM, close to values of KV4.2/KV4.3) was “significantly reduced compared with those for KV4.1”. The “∆Va (steady-state activation)” value (KV4.1/P282T mutant; [7]) was 52.58 ± 1.86 mV and the “∆Vh (steady-state inactivation)” value (KV4.1/P282T mutant; [8]) was 26.75 ± 2.85 mV.
